In ChEMBL document CHEMBL4507300 (2021):

How the values were obtained:
[1] = tested on: Tyrosine-protein kinase ABL1 (Homo sapiens), P00519 [Y253F]; conditions: Compound concentration 1000.0 nM
[2] = molecular target: Activin receptor type-1 (Homo sapiens) (UniProt Q04771); conditions: Compound concentration 1000.0 nM
[3] = molecular target: Activin receptor type-1B (Homo sapiens) (UniProt P36896); conditions: Compound concentration 1000.0 nM
[4] = molecular target: BMP-2-inducible protein kinase (Homo sapiens) (UniProt Q9NSY1); conditions: Compound concentration 1000.0 nM
[5] = molecular target: Calcium/calmodulin-dependent protein kinase type 1D (Homo sapiens) (UniProt Q8IU85); conditions: Compound concentration 1000.0 nM
[6] = molecular target: Cyclin-dependent kinase-like 1 (Homo sapiens) (UniProt Q00532); conditions: Compound concentration 1000.0 nM
[7] = molecular target: Casein kinase II subunit alpha' (Homo sapiens) (UniProt P19784); conditions: Compound concentration 1000.0 nM
[8] = molecular target: Epithelial discoidin domain-containing receptor 1 (Homo sapiens) (UniProt Q08345); conditions: Compound concentration 1000.0 nM
[9] = molecular target: Dual specificity tyrosine-phosphorylation-regulated kinase 1A (Homo sapiens) (UniProt Q13627); conditions: Compound concentration 1000.0 nM
[10] = tested on: Epidermal growth factor receptor (Homo sapiens), P00533 [L861Q]; conditions: Compound concentration 1000.0 nM
[11] = molecular target: Ephrin type-A receptor 8 (Homo sapiens) (UniProt P29322); conditions: Compound concentration 1000.0 nM
[12] = molecular target: Ephrin type-B receptor 2 (Homo sapiens) (UniProt P29323); conditions: Compound concentration 1000.0 nM
[13] = molecular target: Receptor tyrosine-protein kinase erbB-3 (Homo sapiens) (UniProt P21860); conditions: Compound concentration 1000.0 nM
[14] = molecular target: Mitogen-activated protein kinase 15 (Homo sapiens) (UniProt Q8TD08); conditions: Compound concentration 1000.0 nM
[15] = molecular target: Tyrosine-protein kinase Fes/Fps (Homo sapiens) (UniProt P07332); conditions: Compound concentration 1000.0 nM
[16] = molecular target: Receptor-type tyrosine-protein kinase FLT3 (Homo sapiens) (UniProt P36888); conditions: Compound concentration 1000.0 nM
[17] = molecular target: Mitogen-activated protein kinase kinase kinase kinase 1 (Homo sapiens) (UniProt Q92918); conditions: Compound concentration 1000.0 nM
[18] = molecular target: Inhibitor of nuclear factor kappa-B kinase subunit alpha (Homo sapiens) (UniProt O15111); conditions: Compound concentration 1000.0 nM
[19] = molecular target: Tyrosine-protein kinase JAK1 (Homo sapiens) (UniProt P23458); conditions: Compound concentration 1000.0 nM
[20] = tested on: Mast/stem cell growth factor receptor Kit (Homo sapiens), P10721 [A829P]; conditions: Compound concentration 1000.0 nM
[21] = tested on: Mast/stem cell growth factor receptor Kit (Homo sapiens), P10721 [V559D,T670I]; conditions: Compound concentration 1000.0 nM
[22] = molecular target: Tyrosine-protein kinase Lyn (Homo sapiens) (UniProt P07948); conditions: Compound concentration 1000.0 nM
[23] = molecular target: MAP kinase-activated protein kinase 2 (Homo sapiens) (UniProt P49137); conditions: Compound concentration 1000.0 nM
[24] = molecular target: MAP/microtubule affinity-regulating kinase 3 (Homo sapiens) (UniProt P27448); conditions: Compound concentration 1000.0 nM
[25] = molecular target: Dual specificity mitogen-activated protein kinase kinase 2 (Homo sapiens) (UniProt P36507); conditions: Compound concentration 1000.0 nM
[26] = molecular target: Serine/threonine-protein kinase 3 (Homo sapiens) (UniProt Q13188); conditions: Compound concentration 1000.0 nM
[27] = molecular target: Myosin light chain kinase, smooth muscle (Homo sapiens) (UniProt Q15746); conditions: Compound concentration 1000.0 nM
[28] = molecular target: Myosin light chain kinase 2, skeletal/cardiac muscle (Homo sapiens) (UniProt Q9H1R3); conditions: Compound concentration 1000.0 nM
[29] = molecular target: Serine/threonine-protein kinase Nek5 (Homo sapiens) (UniProt Q6P3R8); conditions: Compound concentration 1000.0 nM
[30] = molecular target: Serine/threonine-protein kinase Nek7 (Homo sapiens) (UniProt Q8TDX7); conditions: Compound concentration 1000.0 nM
[31] = tested on: Phosphatidylinositol 4,5-bisphosphate 3-kinase catalytic subunit alpha isoform (Homo sapiens), P42336 [H1047Y]; conditions: Compound concentration 1000.0 nM
[32] = molecular target: Phosphatidylinositol 4,5-bisphosphate 3-kinase catalytic subunit gamma isoform (Homo sapiens) (UniProt P48736); conditions: Compound concentration 1000.0 nM
[33] = molecular target: cAMP-dependent protein kinase catalytic subunit beta (Homo sapiens) (UniProt P22694); conditions: Compound concentration 1000.0 nM
[34] = molecular target: Serine/threonine-protein kinase PLK2 (Homo sapiens) (UniProt Q9NYY3); conditions: Compound concentration 1000.0 nM
[35] = molecular target: Proto-oncogene tyrosine-protein kinase ROS (Homo sapiens) (UniProt P08922); conditions: Compound concentration 1000.0 nM
[36] = molecular target: Ribosomal protein S6 kinase alpha-5 (Homo sapiens) (UniProt O75582); conditions: Compound concentration 1000.0 nM
[37] = molecular target: Ribosomal protein S6 kinase beta-1 (Homo sapiens) (UniProt P23443); conditions: Compound concentration 1000.0 nM
[38] = molecular target: Serine/threonine-protein kinase 35 (Homo sapiens) (UniProt Q8TDR2); conditions: Compound concentration 1000.0 nM
[39] = molecular target: STE20/SPS1-related proline-alanine-rich protein kinase (Homo sapiens) (UniProt Q9UEW8); conditions: Compound concentration 1000.0 nM
[40] = molecular target: Serine/threonine-protein kinase tousled-like 1 (Homo sapiens) (UniProt Q9UKI8); conditions: Compound concentration 1000.0 nM
[41] = molecular target: NT-3 growth factor receptor (Homo sapiens) (UniProt Q16288); conditions: Compound concentration 1000.0 nM
[42] = molecular target: Serine/threonine-protein kinase 32A (Homo sapiens) (UniProt Q8WU08); conditions: Compound concentration 1000.0 nM
[43] = molecular target: 5-hydroxytryptamine receptor 1A (Homo sapiens) (UniProt P08908); conditions: Compound concentration 10.0 uM
[44] = molecular target: 5-hydroxytryptamine receptor 1B (Homo sapiens) (UniProt P28222); conditions: Compound concentration 10.0 uM
[45] = molecular target: Beta-2 adrenergic receptor (Homo sapiens) (UniProt P07550); conditions: Compound concentration 10.0 uM

Sequence of Serine/threonine-protein kinase 3 (Homo sapiens) (Q13188 whole entry): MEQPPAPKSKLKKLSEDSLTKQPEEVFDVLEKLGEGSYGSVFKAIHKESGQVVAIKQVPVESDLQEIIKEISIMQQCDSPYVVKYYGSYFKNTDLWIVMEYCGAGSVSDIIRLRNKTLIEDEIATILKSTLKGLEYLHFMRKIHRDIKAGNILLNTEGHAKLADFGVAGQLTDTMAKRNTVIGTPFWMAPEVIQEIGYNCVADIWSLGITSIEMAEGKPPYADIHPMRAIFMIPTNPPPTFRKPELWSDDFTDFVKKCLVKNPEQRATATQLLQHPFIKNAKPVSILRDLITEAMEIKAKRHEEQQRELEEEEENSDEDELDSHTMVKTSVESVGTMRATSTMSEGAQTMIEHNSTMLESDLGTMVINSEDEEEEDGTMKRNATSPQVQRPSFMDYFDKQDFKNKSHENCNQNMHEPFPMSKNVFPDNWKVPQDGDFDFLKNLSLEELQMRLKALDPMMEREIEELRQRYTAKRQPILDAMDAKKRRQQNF
Sequence of Mitogen-activated protein kinase kinase kinase kinase 1 (Homo sapiens) (Q92918 whole entry, looked up): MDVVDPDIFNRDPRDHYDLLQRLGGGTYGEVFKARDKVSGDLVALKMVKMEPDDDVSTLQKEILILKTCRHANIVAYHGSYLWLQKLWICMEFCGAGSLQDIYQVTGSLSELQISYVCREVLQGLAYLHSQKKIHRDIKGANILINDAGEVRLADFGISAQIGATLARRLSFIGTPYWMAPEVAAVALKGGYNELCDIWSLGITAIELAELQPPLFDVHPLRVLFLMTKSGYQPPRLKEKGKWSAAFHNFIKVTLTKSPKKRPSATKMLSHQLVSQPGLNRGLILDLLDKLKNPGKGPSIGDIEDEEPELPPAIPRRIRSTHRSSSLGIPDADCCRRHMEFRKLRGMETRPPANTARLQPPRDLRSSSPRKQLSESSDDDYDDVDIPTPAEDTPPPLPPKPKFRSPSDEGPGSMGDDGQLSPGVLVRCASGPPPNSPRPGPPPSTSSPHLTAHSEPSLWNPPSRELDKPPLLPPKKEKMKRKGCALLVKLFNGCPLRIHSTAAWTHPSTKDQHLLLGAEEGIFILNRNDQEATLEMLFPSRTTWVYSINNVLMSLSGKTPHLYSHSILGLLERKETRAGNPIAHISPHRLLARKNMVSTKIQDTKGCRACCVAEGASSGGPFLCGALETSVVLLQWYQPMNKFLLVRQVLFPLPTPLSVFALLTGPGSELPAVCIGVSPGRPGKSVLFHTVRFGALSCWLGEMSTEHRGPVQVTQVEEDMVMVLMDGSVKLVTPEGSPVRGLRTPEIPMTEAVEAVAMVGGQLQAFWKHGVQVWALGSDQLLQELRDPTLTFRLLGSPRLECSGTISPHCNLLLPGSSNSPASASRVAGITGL
Sequence of Myosin light chain kinase, smooth muscle (Homo sapiens) (Q15746 whole entry): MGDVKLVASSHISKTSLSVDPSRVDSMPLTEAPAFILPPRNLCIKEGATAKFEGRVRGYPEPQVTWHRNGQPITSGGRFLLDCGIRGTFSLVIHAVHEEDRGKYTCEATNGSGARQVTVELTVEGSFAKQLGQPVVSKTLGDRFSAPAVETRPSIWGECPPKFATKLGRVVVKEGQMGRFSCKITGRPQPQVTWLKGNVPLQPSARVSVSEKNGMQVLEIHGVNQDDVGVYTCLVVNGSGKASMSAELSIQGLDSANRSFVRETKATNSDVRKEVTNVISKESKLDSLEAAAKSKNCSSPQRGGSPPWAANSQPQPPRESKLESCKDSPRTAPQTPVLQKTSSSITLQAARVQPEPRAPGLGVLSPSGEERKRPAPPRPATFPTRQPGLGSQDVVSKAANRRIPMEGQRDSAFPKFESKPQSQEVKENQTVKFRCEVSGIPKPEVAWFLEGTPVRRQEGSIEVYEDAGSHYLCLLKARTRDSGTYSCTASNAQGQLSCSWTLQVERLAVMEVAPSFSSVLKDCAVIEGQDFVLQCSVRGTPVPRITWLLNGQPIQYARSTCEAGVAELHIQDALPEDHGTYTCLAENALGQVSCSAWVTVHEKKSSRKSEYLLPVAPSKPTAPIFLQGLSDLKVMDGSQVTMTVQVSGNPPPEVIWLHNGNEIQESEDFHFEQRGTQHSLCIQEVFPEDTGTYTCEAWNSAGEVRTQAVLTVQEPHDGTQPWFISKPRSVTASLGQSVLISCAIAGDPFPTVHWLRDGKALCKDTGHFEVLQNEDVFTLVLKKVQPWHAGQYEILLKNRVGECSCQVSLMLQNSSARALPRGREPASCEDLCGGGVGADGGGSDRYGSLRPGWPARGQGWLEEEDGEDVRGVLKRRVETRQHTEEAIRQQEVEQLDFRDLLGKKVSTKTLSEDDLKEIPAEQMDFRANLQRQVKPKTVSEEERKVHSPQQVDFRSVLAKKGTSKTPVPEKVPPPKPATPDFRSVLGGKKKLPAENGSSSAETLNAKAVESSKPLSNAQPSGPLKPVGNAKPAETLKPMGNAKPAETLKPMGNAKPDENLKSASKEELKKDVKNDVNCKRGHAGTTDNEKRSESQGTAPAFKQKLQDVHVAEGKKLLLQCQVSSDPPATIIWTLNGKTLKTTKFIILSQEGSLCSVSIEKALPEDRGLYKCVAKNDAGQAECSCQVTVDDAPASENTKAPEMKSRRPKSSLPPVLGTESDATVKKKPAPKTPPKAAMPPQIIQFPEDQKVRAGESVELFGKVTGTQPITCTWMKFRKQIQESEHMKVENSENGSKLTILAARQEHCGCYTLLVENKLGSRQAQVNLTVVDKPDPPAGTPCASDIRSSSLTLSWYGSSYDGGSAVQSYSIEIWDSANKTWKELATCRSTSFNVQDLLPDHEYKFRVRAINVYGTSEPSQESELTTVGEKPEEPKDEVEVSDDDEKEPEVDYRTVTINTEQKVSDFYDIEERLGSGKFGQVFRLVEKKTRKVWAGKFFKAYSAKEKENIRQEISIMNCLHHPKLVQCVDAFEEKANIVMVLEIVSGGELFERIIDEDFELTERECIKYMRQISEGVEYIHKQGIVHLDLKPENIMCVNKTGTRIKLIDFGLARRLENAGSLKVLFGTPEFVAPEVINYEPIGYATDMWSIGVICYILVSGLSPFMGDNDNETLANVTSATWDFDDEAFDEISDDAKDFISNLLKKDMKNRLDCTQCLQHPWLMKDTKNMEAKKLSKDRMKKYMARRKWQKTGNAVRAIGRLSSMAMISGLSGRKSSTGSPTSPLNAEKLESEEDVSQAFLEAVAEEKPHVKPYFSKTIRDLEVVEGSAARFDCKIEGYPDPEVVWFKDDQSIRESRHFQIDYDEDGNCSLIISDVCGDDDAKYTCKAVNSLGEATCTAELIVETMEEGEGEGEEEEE
Sequence of Epithelial discoidin domain-containing receptor 1 (Homo sapiens) (Q08345 whole entry, the tested form may be a part): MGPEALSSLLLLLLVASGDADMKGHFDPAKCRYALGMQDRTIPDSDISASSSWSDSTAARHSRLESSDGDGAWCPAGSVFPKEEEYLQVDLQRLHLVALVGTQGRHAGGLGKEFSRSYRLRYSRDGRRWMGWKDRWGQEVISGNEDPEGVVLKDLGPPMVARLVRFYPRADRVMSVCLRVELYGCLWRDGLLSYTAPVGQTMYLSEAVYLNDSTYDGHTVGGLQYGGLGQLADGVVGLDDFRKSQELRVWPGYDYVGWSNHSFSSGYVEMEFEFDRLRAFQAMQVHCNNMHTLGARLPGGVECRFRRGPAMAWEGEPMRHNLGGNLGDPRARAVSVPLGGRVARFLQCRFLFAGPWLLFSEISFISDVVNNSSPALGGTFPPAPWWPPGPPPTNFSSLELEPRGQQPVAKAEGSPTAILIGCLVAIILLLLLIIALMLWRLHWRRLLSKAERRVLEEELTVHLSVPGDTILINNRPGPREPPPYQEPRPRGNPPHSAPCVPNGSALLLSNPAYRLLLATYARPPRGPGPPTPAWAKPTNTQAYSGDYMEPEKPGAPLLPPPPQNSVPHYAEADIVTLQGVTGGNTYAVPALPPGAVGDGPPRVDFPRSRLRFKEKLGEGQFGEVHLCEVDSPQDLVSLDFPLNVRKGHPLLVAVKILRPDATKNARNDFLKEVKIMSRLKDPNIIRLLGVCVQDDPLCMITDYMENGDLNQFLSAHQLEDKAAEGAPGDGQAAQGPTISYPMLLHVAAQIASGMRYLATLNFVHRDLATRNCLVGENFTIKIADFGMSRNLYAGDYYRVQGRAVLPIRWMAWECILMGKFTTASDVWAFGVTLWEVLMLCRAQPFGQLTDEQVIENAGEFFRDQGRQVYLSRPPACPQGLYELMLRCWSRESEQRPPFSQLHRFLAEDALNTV
Sequence of Mast/stem cell growth factor receptor Kit (Homo sapiens), P10721 [A829P] (P10721 whole entry A829P): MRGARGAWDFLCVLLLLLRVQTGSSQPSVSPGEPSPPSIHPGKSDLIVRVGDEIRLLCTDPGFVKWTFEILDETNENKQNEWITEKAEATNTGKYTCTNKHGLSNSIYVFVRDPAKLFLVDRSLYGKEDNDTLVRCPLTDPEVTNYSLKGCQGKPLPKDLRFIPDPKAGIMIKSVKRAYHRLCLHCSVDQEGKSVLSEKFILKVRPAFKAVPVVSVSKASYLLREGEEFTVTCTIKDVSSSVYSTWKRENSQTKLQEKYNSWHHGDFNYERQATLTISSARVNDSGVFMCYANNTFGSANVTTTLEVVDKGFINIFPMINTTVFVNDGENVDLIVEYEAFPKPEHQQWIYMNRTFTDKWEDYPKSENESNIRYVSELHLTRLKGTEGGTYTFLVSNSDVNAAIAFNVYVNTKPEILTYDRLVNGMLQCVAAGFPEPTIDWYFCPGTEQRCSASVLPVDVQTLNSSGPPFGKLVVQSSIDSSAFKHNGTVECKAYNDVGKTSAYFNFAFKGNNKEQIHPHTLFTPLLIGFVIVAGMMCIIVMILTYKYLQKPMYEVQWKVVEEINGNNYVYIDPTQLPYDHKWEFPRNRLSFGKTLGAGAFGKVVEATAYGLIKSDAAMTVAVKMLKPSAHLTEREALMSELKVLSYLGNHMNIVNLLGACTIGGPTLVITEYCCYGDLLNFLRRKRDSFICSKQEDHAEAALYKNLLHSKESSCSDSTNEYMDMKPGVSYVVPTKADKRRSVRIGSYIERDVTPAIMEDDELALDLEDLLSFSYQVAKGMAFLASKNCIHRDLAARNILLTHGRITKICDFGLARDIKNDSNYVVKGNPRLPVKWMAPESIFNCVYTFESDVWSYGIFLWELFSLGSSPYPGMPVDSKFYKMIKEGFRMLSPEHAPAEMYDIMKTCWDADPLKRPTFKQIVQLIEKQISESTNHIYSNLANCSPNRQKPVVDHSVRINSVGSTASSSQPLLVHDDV

COc1cccc(CNC(=O)c2nc3scc(COCc4ccc(C(=O)O)cc4)c3c(=O)[nH]2)c1 [T-26c]
inactive: residual activity [1] 84.6% | residual activity [2] 94.3% | residual activity [3] 89.4% | residual activity [4] 92.3% | residual activity [5] 100% | residual activity [6] 100% | residual activity [7] 79.4% | residual activity [8] 100% | residual activity [9] 89.5% | residual activity [10] 77.8% | residual activity [11] 82.5% | residual activity [12] 95.7% | residual activity [13] 89.4% | residual activity [14] 82.4% | residual activity [15] 94.5% | residual activity [16] 85% | residual activity [17] 100% | residual activity [18] 64.8% | residual activity [19] 93.9% | residual activity [20] 69.2% | residual activity [21] 100% | residual activity [22] 93.7% | residual activity [23] 64.3% | residual activity [24] 100% | residual activity [25] 75.1% | residual activity [26] 100% | residual activity [27] 100% | residual activity [28] 100% | residual activity [29] 100% | residual activity [30] 100% | residual activity [31] 100% | residual activity [32] 76.8% | residual activity [33] 91.1% | residual activity [34] 56.7% | residual activity [35] 100% | residual activity [36] 93.1% | residual activity [37] 96.1% | residual activity [38] 93.6% | residual activity [39] 100% | residual activity [40] 100% | residual activity [41] 76.3% | residual activity [42] 100% | inhibition [43] 7.7% | inhibition [44] 15.9% | inhibition [45] 25.4%
